We go through 34 molecules from patent US10307425B2, “Compositions and methods for treating toxoplasmosis, cryptosporidiosis and other apicomplexan protozoan related diseases” (UNIVERSITY OF WASHINGTON, priority 2015, dated 2019).

The structures appear in SMILES notation. Values after ≈ are worked out from the molar mass of the structure shown. Some results are limits rather than exact numbers.

In one data set the target is TgCDPK1 (Toxoplasma gondii, UniProt Q9BJF5). Briefly: biochemical.
Chain of TgCDPK1 (Q9BJF5 1-507): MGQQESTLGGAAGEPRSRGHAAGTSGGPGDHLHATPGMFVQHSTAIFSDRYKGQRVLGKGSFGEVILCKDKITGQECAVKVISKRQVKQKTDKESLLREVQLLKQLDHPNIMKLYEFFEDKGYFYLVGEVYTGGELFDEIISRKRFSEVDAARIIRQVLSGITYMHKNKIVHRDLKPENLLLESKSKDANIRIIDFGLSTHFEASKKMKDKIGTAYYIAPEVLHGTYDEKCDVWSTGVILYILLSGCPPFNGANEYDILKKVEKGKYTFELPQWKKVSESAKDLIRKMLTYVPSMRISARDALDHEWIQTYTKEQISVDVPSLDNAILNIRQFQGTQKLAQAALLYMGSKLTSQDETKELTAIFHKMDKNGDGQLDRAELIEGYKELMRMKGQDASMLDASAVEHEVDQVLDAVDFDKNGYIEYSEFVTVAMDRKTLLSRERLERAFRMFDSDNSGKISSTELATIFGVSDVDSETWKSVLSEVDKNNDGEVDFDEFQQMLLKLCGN
Conditions: not given
In turn, `Nc1ncnc2c1c(-c1ccc3cc(OC4CC4)ccc3c1)nn2CC1(O)CCNCC1` [Example 78, 4-((4-amino-3-(6-cyclopropoxynaphthalen-2-yl)-1H-pyrazolo[3,4-d]pyrimidin-1-yl)methyl)piperidin-4-ol] yielded a half-inhibitory concentration (IC50) of 0.7 nM.
Molecule `CN1CCC(O)(Cn2nc(-c3ccc4cc(OC5CC5)ccc4c3)c3c(N)ncnc32)CC1` [Example 79, 4-((4-amino-3-(6-cyclopropoxynaphthalen-2-yl)-1H-pyrazolo[3,4-d]pyrimidin-1-yl)methyl)-1-methylpiperidin-4-ol] displayed an IC50 of 4.5 nM.
Still for that read-out and setting: to `CCOc1ccc2cc(-c3nn(CC4(O)CCN(C)CC4)c4ncnc(N)c34)ccc2n1` [Example 80, 4-((4-amino-3-(2-ethoxyquinolin-6-yl)-1H-pyrazolo[3,4-d]pyrimidin-1-yl)methyl)-1-methylpiperidin-4-ol] belongs 23.1 nM.
Turning to `Nc1ncnc2c1c(-c1ccc3nc(OC4CC4)ccc3c1)nn2CC1(O)CCNCC1` [Example 82, 4-((4-amino-3-(2-cyclopropoxyquinolin-6-yl)-1H-pyrazolo[3,4-d]pyrimidin-1-yl)methyl)piperidin-4-ol], it took 0.7 nM to reach half-maximal inhibition (IC50).
Molecule `CN1CCC(C#N)(Cn2nc(-c3ccc4cc(OC5CC5)ccc4c3)c3c(N)ncnc32)CC1` [Example 83, 4-((4-amino-3-(6-cyclopropoxynaphthalen-2-yl)-1H-pyrazolo[3,4-d]pyrimidin-1-yl)methyl)-1-methylpiperidine-4-carbonitrile] had an IC50 of 3.5 nM.
For `CCOc1ccc2cc(-c3nn(CC4(O)CCNCC4)c4ncnc(N)c34)ccc2n1` [Example 84, 4-((4-amino-3-(2-ethoxyquinolin-6-yl)-1H-pyrazolo[3,4-d]pyrimidin-1-yl)methyl)piperidin-4-ol], the IC50 stood at 4 nM.
Take `CN1CCC(O)(Cn2nc(-c3ccc4nc(OC5CC5)ccc4c3)c3c(N)ncnc32)CC1` [Example 85, 4-((4-amino-3-(2-cyclopropoxyquinolin-6-yl)-1H-pyrazolo[3,4-d]pyrimidin-1-yl)methyl)-1-methylpiperidin-4-ol]: the IC50 is 21 nM.
`CCOc1ccc2cc(-c3nn(CC4(C#N)CCNCC4)c4ncnc(N)c34)ccc2n1` [Example 86, 4-((4-amino-3-(2-ethoxyquinolin-6-yl)-1H-pyrazolo[3,4-d]pyrimidin-1-yl)methyl)piperidine-4-carbonitrile] returned an IC50 of 1.5 nM.
Same read-out and setting: to `CCOc1ccc2cc(-c3nn(CC4(C#N)CCN(C)CC4)c4ncnc(N)c34)ccc2n1` [Example 87, 4-((4-amino-3-(2-ethoxyquinolin-6-yl)-1H-pyrazolo[3,4-d]pyrimidin-1-yl)methyl)-1-methylpiperidine-4-carbonitrile] belongs 103 nM.
On to `CC(C)(O)Cn1nc(-c2ccc3cc(OCC#N)ccc3c2)c2c(N)ncnc21` [Example 88, 2-(6-(4-amino-1-(2-hydroxy-2-methylpropyl)-1H-pyrazolo[3,4-d]pyrimidin-3-yl)naphthalen-2-yloxy)acetonitrile], for which the IC50 was 112 nM.
`COC(=O)COc1ccc2cc(-c3nn(CC4CCNCC4)c4ncnc(N)c34)ccc2n1` [Example 89, methyl 2-(6-(4-amino-1-(piperidin-4-ylmethyl)-1H-pyrazolo[3,4-d]pyrimidin-3-yl)quinolin-2-yloxy)acetate] gave an IC50 of 1440 nM.
`Nc1ncnc2c1c(-c1ccc3cc(OC4CC4)ccc3c1)nn2CC1(O)CNC1` [Example 90, 3-((4-amino-3-(6-cyclopropoxynaphthalen-2-yl)-1H-pyrazolo[3,4-d]pyrimidin-1-yl)methyl)azetidin-3-ol]: 5.1 nM corresponded to half-maximal inhibition (IC50).
For the molecule `CN1CC(O)(Cn2nc(-c3ccc4cc(OC5CC5)ccc4c3)c3c(N)ncnc32)C1` [Example 91, 3-((4-amino-3-(6-cyclopropoxynaphthalen-2-yl)-1H-pyrazolo[3,4-d]pyrimidin-1-yl)methyl)-1-methylazetidin-3-ol], the IC50 stood at 3.8 nM.
Same read-out and setting: to `CN1CCC(C#N)(Cn2nc(-c3ccc4nc(OC5CC5)ccc4c3)c3c(N)ncnc32)CC1` [Example 92, 4-((4-amino-3-(2-cyclopropoxyquinolin-6-yl)-1H-pyrazolo[3,4-d]pyrimidin-1-yl)methyl)-1-methylpiperidine-4-carbonitrile] belongs 5.5 nM.
Still for that read-out and setting: then `CCOc1ccc2cc(-c3nn(CC4(O)CNC4)c4ncnc(N)c34)ccc2n1` [Example 93, 3-((4-amino-3-(2-ethoxyquinolin-6-yl)-1H-pyrazolo[3,4-d]pyrimidin-1-yl)methyl)azetidin-3-ol], with 2.9 nM; and `Nc1ncnc2c1c(-c1ccc3cc(OC(F)F)ccc3c1)nn2CC1CCNCC1` [Example 94, 3-(6-(difluoromethoxy)naphthalen-2-yl)-1-(piperidin-4-ylmethyl)-1H-pyrazolo[3,4-d]pyrimidin-4-amine], with 1.9 nM.
On to `CN1CCC(Cn2nc(-c3ccc4cc(OC(F)F)ccc4c3)c3c(N)ncnc32)CC1` [Example 95, 3-(6-(difluoromethoxy)naphthalen-2-yl)-1-((1-methylpiperidin-4-yl)methyl)-1H-pyrazolo[3,4-d]pyrimidin-4-amine], for which half-maximal inhibition (IC50) required 6.5 nM.
`CCOc1ccc2cc(-c3nn(CC4(O)CNC4)c4ncnc(N)c34)ccc2c1` [Example 96, 3-((4-amino-3-(6-ethoxynaphthalen-2-yl)-1H-pyrazolo[3,4-d]pyrimidin-1-yl)methyl)azetidin-3-ol] displayed an IC50 of 7.8 nM.
On the same count and under the same terms, then `CCOc1ccc2cc(-c3nn(CC4(O)CN(C)C4)c4ncnc(N)c34)ccc2c1` [Example 97, 3-((4-amino-3-(6-ethoxynaphthalen-2-yl)-1H-pyrazolo[3,4-d]pyrimidin-1-yl)methyl)-1-methylazetidin-3-ol], with 2.6 nM.
Same read-out and setting: then `Nc1ncnc2c1c(-c1ccc3cc(OC(F)F)ccc3c1)nn2CC1(O)CCNCC1` [Example 98, 4-((4-amino-3-(6-(difluoromethoxy)naphthalen-2-yl)-1H-pyrazolo[3,4-d]pyrimidin-1-yl)methyl)piperidin-4-ol], with 7.5 nM; and `CN1CCC(O)(Cn2nc(-c3ccc4cc(OC(F)F)ccc4c3)c3c(N)ncnc32)CC1` [Example 99, 4-((4-amino-3-(6-(difluoromethoxy)naphthalen-2-yl)-1H-pyrazolo[3,4-d]pyrimidin-1-yl)methyl)-1-methylpiperidin-4-ol], with 35.8 nM.
The same measure, in the same setting: to `N#CC1(Cn2nc(-c3ccc4cc(OC(F)F)ccc4c3)c3c(N)ncnc32)CCNCC1` [Example 100, 4-((4-amino-3-(6-(difluoromethoxy)naphthalen-2-yl)-1H-pyrazolo[3,4-d]pyrimidin-1-yl)methyl)piperidine-4-carbonitrile] belongs 2.5 nM.
`Nc1ncnc2c1c(-c1ccc3nc(OC4CC4)ccc3c1)nn2CC1(O)CNC1` [Example 101, 3-((4-amino-3-(2-cyclopropoxyquinolin-6-yl)-1H-pyrazolo[3,4-d]pyrimidin-1-yl)methyl)azetidin-3-ol] gave an IC50 of 3 nM.
Still for that read-out and setting: to `CN1CCC(C#N)(Cn2nc(-c3ccc4cc(OC(F)F)ccc4c3)c3c(N)ncnc32)CC1` [Example 102, 4-((4-amino-3-(6-(difluoromethoxy)naphthalen-2-yl)-1H-pyrazolo[3,4-d]pyrimidin-1-yl)methyl)-1-methylpiperidine-4-carbonitrile] belongs 18.2 nM; to `CN1CC(O)(Cn2nc(-c3ccc4nc(OC5CC5)ccc4c3)c3c(N)ncnc32)C1` [Example 103, 3-((4-amino-3-(2-cyclopropoxyquinolin-6-yl)-1H-pyrazolo[3,4-d]pyrimidin-1-yl)methyl)-1-methylazetidin-3-ol], 4.8 nM.
With `CCOc1ccc2cc(-c3nn(C(C)C)c4ncnc(N)c34)ccc2n1` [Example 106, 3-(2-ethoxyquinolin-6-yl)-1-isopropyl-1H-pyrazolo[3,4-d]pyrimidin-4-amine], the IC50 stood at 2 nM.
In turn, `CCOc1ccc2cc(-c3nc(CC4CCNCC4)n4ccnc(N)c34)ccc2c1` [Example 114, 1-(6-ethoxynaphthalen-2-yl)-3-(piperidin-4-ylmethyl)imidazo[1,5-a]pyrazin-8-amine] showed an IC50 of 10 nM.
As for `CCOc1ccc2cc(-c3nc(CC4CCN(C)CC4)n4ccnc(N)c34)ccc2c1` [Example 115, 1-(6-ethoxynaphthalen-2-yl)-3-((1-methylpiperidin-4-yl)methyl)imidazo[1,5-a]pyrazin-8-amine], the half-inhibitory concentration (IC50) was found to be 18.6 nM.
On the same count and under the same terms, to `CC(C)n1nc(-c2ccc3cc(OC4COC4)ccc3c2)c2c(N)ncnc21` [Example 116, 1-isopropyl-3-(6-(oxetan-3-yloxy)naphthalen-2-yl)-1H-pyrazolo[3,4-d]pyrimidin-4-amine] belongs 6.1 nM.
Regarding `CC(C)n1nc(-c2ccc3cc(OCC(C)(C)O)ccc3c2)c2c(N)ncnc21` [Example 117, 1-((6-(4-amino-1-isopropyl-1H-pyrazolo[3,4-d]pyrimidin-3-yl)naphthalen-2-yl)oxy)-2-methylpropan-2-ol], the IC50 amounted to 3 nM.
The same measure, in the same setting: to `CC(C)n1nc(-c2ccc3cc(OCCO)ccc3c2)c2c(N)ncnc21` [Example 118, 2-((6-(4-amino-1-isopropyl-1H-pyrazolo[3,4-d]pyrimidin-3-yl)naphthalen-2-yl)oxy)ethan-1-ol] belongs 6.2 nM.

The test system of another data set is SnCDPK1. Briefly: Recombinant SnCDPK1 inhibition. Type of data set: biochemical, Sarcocystis neurona.
Conditions: not given
As for `Nc1ncnc2c1c(-c1ccc3nccnc3c1)nn2CC1CCNCC1`, the IC50 is more than 2000 nM.
Turning to `CC(C)(O)Cn1nc(-c2ccc3nc(OC4CC4)ccc3c2)c2c(N)ncnc21` [Example 25, 1-(4-Amino-3-(2-cyclopropoxyquinolin-6-yl)-1H-pyrazolo[3,4-d]pyrimidin-1-yl)-2-methylpropan-2-ol], the IC50 is 7.5 nM.

Test system in the next data set: not given
Assay: not given
The following applies: pH 6.5.
Consider `Nc1ncnc2c1c(-c1ccc3nc(OC4CC4)ccc3c1)nn2CC1CCOCC1` [Example 22, 3-(2-Cyclopropoxyquinolin-6-yl)-1-((tetrahydro-2H-pyran-4-yl)methyl)-1H-pyrazolo[3,4-d]pyrimidin-4-amine], for which the Solubility turned out to be 17 µM (≈ 7.08 µg/mL).

Test system in a further data set: not listed separately
Briefly: in vivo. The note with it: female, BALB/c, mouse, po, 10 mg/kg.
For the molecule `Nc1ncnc2c1c(-c1ccc3nc(OC4CC4)ccc3c1)nn2CC1CCOCC1` [Example 22, 3-(2-Cyclopropoxyquinolin-6-yl)-1-((tetrahydro-2H-pyran-4-yl)methyl)-1H-pyrazolo[3,4-d]pyrimidin-4-amine], the highest level (Cmax) was 880 ± 230 nM and the time of peak concentration (Tmax) is 30 min.

In another data set the test system is S. neurona merozoites. The data set can be described thus: S. neurona growth assay (yellow fluorescent protein-expressing clone). The note with it: Sarcocystis neurona, read-out: S. neurona EC50.
Regarding `Nc1ncnc2c1c(-c1ccc3nccnc3c1)nn2CC1CCNCC1`, the EC50 was more than 10000 nM.
Same read-out and setting: then `CC(C)(O)Cn1nc(-c2ccc3nc(OC4CC4)ccc3c2)c2c(N)ncnc21` [Example 25, 1-(4-Amino-3-(2-cyclopropoxyquinolin-6-yl)-1H-pyrazolo[3,4-d]pyrimidin-1-yl)-2-methylpropan-2-ol], with 128 nM.

A word on the IC50: it is the concentration needed to halve the response being measured. By Solubility is commonly meant the dissolved amount per volume that the medium holds. A higher Solubility goes with a readily soluble substance. One may read the Cmax as the highest concentration seen after dosing. By Tmax is commonly meant the time from dosing to the highest level. A word on the EC50: it is the concentration giving half of the maximal effect.
